Results: BigSolDB 2.1

SMILES: O=C(O)CNC(=O)c1ccccc1
- solubility (mole fraction) (in 1,4-dioxane, 298.15 K): 0.00729
- solubility (mole fraction) (in 1,4-dioxane, 303.15 K): 0.0084
- solubility (mole fraction) (in 1,4-dioxane, 308.15 K): 0.0109
- solubility (mole fraction) (in 1,4-dioxane, 313.15 K): 0.014
- solubility (mole fraction) (in 1,4-dioxane, 318.15 K): 0.0164
- solubility (mole fraction) (in 1,4-dioxane, 323.15 K): 0.0182
- solubility (mole fraction) (in 1,4-dioxane, 328.15 K): 0.0209
- solubility (mole fraction) (in DMF, 298.15 K): 0.206
- solubility (mole fraction) (in DMF, 303.15 K): 0.213
- solubility (mole fraction) (in DMF, 308.15 K): 0.219
- solubility (mole fraction) (in DMF, 313.15 K): 0.226
- solubility (mole fraction) (in DMF, 318.15 K): 0.232
- solubility (mole fraction) (in DMF, 323.15 K): 0.239
- solubility (mole fraction) (in DMF, 328.15 K): 0.246
- solubility (mole fraction) (in THF, 298.15 K): 0.0142
- solubility (mole fraction) (in THF, 303.15 K): 0.0167
- solubility (mole fraction) (in THF, 308.15 K): 0.018
- solubility (mole fraction) (in THF, 313.15 K): 0.0209
- solubility (mole fraction) (in THF, 318.15 K): 0.0228
- solubility (mole fraction) (in THF, 323.15 K): 0.026
- solubility (mole fraction) (in THF, 328.15 K): 0.0291
- solubility (mole fraction) (in chloroform, 298.15 K): 0.00021
- solubility (mole fraction) (in chloroform, 303.15 K): 0.00035
- solubility (mole fraction) (in chloroform, 308.15 K): 0.00052
- solubility (mole fraction) (in chloroform, 313.15 K): 0.0007
- solubility (mole fraction) (in chloroform, 318.15 K): 0.00088
- solubility (mole fraction) (in chloroform, 323.15 K): 0.00102
- solubility (mole fraction) (in chloroform, 328.15 K): 0.0011
- solubility (mole fraction) (in ethanol, 298.15 K): 0.0148
- solubility (mole fraction) (in ethanol, 303.15 K): 0.0162
- solubility (mole fraction) (in ethanol, 308.15 K): 0.0194
- solubility (mole fraction) (in ethanol, 313.15 K): 0.024
- solubility (mole fraction) (in ethanol, 318.15 K): 0.029
- solubility (mole fraction) (in ethanol, 323.15 K): 0.0342
- solubility (mole fraction) (in ethanol, 328.15 K): 0.0396
- solubility (mole fraction) (in methanol, 298.15 K): 0.0179
- solubility (mole fraction) (in methanol, 303.15 K): 0.0197
- solubility (mole fraction) (in methanol, 308.15 K): 0.023
- solubility (mole fraction) (in methanol, 313.15 K): 0.0275
- solubility (mole fraction) (in methanol, 318.15 K): 0.0323
- solubility (mole fraction) (in methanol, 323.15 K): 0.0378
- solubility (mole fraction) (in methanol, 328.15 K): 0.0448
- solubility (mole fraction) (in n-butanol, 298.15 K): 0.00776
- solubility (mole fraction) (in n-butanol, 303.15 K): 0.00908
- solubility (mole fraction) (in n-butanol, 308.15 K): 0.0106
- solubility (mole fraction) (in n-butanol, 313.15 K): 0.0128
- solubility (mole fraction) (in n-butanol, 318.15 K): 0.0151
- solubility (mole fraction) (in n-butanol, 323.15 K): 0.0178
- solubility (mole fraction) (in n-butanol, 328.15 K): 0.0205
- solubility (mole fraction) (in n-propanol, 298.15 K): 0.00884
- solubility (mole fraction) (in n-propanol, 303.15 K): 0.0108
- solubility (mole fraction) (in n-propanol, 308.15 K): 0.0121
- solubility (mole fraction) (in n-propanol, 313.15 K): 0.0151
- solubility (mole fraction) (in n-propanol, 318.15 K): 0.0174
- solubility (mole fraction) (in n-propanol, 323.15 K): 0.0201
- solubility (mole fraction) (in n-propanol, 328.15 K): 0.0232
